Measurements as given in the supplement of paper PMC10307832.

Experiments:
Assay in all cases: relative viability (nuclei count vs DMSO), 5 days (fraction); higher = more cells survive
Darinaparsin + Olaparib = compound: C[As](C)SC[C@H](NC(=O)CC[C@H](N)C(=O)O)C(=O)NCC(=O)O [Darinaparsin] + O=C(c1cc(Cc2n[nH]c(=O)c3ccccc23)ccc1F)N1CCN(C(=O)C2CC2)CC1 [Olaparib] (partner 8 µM)
How it was run: (§1)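 After 5 days of treatment, lung cancer cells in 1536-well plates were fixed and stained in a single step (final 0.05% Triton X-100, 1% formaldehyde, 1 ug/ml Hoechst) and their nuclei counted on 4× images. Treatment had been applied by pin tool the day after seeding as one drug alone or as a fixed anchor-drug dose with five library-drug doses (not always all listed) in √10 steps. Relative viability is the nuclei count of treated wells divided by that of vehicle wells, and values are medians of duplicate plates.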

QS11 + Phenformin = compound: C1CC2=C(C1)C=C(C=C2)OC3=NC(=C4C(=N3)N(C=N4)CC5=CC=C(C=C5)C6=CC=CC=C6)N[C@@H](CC7=CC=CC=C7)CO [QS11] + N=C(N)NC(=N)NCCc1ccccc1 [Phenformin] (partner 250 µM)
How it was run: as §1

[1] = compound: C[As](C)SC[C@H](NC(=O)CC[C@H](N)C(=O)O)C(=O)NCC(=O)O [Darinaparsin] + N=C(N)NC(=N)NCCc1ccccc1 [Phenformin] (partner 250 µM)
How it was run: as §1

AZ628 + Lapatinib = compound: CC1=C(C=C(C=C1)NC(=O)C2=CC(=CC=C2)C(C)(C)C#N)NC3=CC4=C(C=C3)N=CN(C4=O)C [AZ628] + CS(=O)(=O)CCNCc1ccc(-c2ccc3ncnc(Nc4ccc(OCc5cccc(F)c5)c(Cl)c4)c3c2)o1 [Lapatinib] (partner 2 µM)
How it was run: as §1

Row | Cell Line | relative viability (Darinaparsin + Olaparib; first compound 0.08 µM) | relative viability (Darinaparsin + Olaparib; first compound 0.8 µM) | relative viability (Darinaparsin + Olaparib; first compound 2.53 µM) | relative viability (Darinaparsin + Olaparib; first compound 8 µM) | relative viability (QS11 + Phenformin; first compound 0.08 µM) | relative viability (QS11 + Phenformin; first compound 0.253 µM) | relative viability (QS11 + Phenformin; first compound 0.8 µM) | relative viability (QS11 + Phenformin; first compound 2.53 µM) | relative viability (QS11 + Phenformin; first compound 8 µM) | relative viability ([1]; first compound 0.08 µM) | relative viability ([1]; first compound 0.8 µM) | relative viability ([1]; first compound 2.53 µM) | relative viability ([1]; first compound 8 µM) | relative viability (AZ628 + Lapatinib; first compound 0.08 µM) | relative viability (AZ628 + Lapatinib; first compound 0.253 µM) | relative viability (AZ628 + Lapatinib; first compound 0.8 µM) | relative viability (AZ628 + Lapatinib; first compound 2.53 µM) | relative viability (AZ628 + Lapatinib; first compound 8 µM)
1 | NCI-H1975 | 1.09 | 0.782 | 0.808 | 1.02 | 0.419 | 0.406 | 0.429 | 0.493 | 0.515 | 0.448 | 0.43 | 0.413 | 0.427 | 0.866 | 0.723 | 0.85 | 0.921 | 0.513
2 | BEN | 1.21 | 0.993 | 1.06 | 1.08 | 0.262 | 0.3 | 0.29 | 0.258 | 0.251 | 0.263 | 0.268 | 0.263 | 0.265 | 0.775 | 0.554 | 0.661 | 0.815 | 0.545
3 | NCI-H1437 | 0.705 | 0.623 | 0.615 | 0.689 | 0.302 | 0.225 | 0.285 | 0.334 | 0.283 | 0.327 | 0.298 | 0.358 | 0.281 | 0.858 | 0.735 | 0.738 | 0.94 | 0.97
4 | NCI-H1734 | 0.73 | 0.561 | 0.627 | 0.641 | 0.391 | 0.397 | 0.389 | 0.374 | 0.375 | 0.464 | 0.409 | 0.363 | 0.424 | 1.08 | 1.07 | 0.896 | 0.908 | 0.699
5 | NCI-H596 | 0.634 | 0.675 | 0.667 | 0.774 | 0.736 | 0.81 | 0.804 | 0.832 | 0.874 | 0.891 | 0.737 | 0.677 | 0.745 | 1.03 | 1.08 | 1.11 | 1.08 | 1.27
6 | LOU-NH91 | 0.932 | 0.869 | 0.912 | 0.964 | 0.685 | 0.62 | 0.657 | 0.67 | 0.663 | 0.731 | 0.683 | 0.692 | 0.705 | 0.776 | 0.738 | 0.724 | 0.67 | 0.626
7 | NCI-H2342 | 0.484 | 0.398 | 0.461 | 0.415 | 0.632 | 0.62 | 0.638 | 0.599 | 0.615 | 0.596 | 0.627 | 0.567 | 0.628 |  |  |  |  | 
8 | NCI-H522 | 0.621 | 0.718 | 0.703 | 0.543 | 0.689 | 0.656 | 0.621 | 0.705 | 0.677 | 0.711 | 0.597 | 0.611 | 0.658 |  |  |  |  | 
9 | SK-MES-1 | 0.888 | 0.66 | 0.662 | 0.474 | 0.764 | 0.678 | 0.663 | 0.712 | 0.711 | 0.783 | 0.592 | 0.594 | 0.667 | 0.475 | 0.501 | 0.479 | 0.473 | 0.437
10 | UMC-11 | 0.494 | 0.347 | 0.536 | 0.346 | 0.325 | 0.287 | 0.302 | 0.324 | 0.24 | 0.369 | 0.341 | 0.357 | 0.325 | 1.05 | 0.903 | 0.95 | 0.9 | 0.968
11 | LK-2 | 0.727 | 0.546 | 0.644 | 0.731 | 0.243 | 0.76 | 0.524 | 0.426 | 0.411 | 0.399 |  | 0.346 | 0.429 | 1.06 | 0.56 | 0.885 | 0.799 | 0.537
12 | CAL-12T | 0.875 | 0.617 | 0.822 | 0.698 | 0.571 | 0.572 | 0.552 | 0.594 | 0.561 | 0.657 | 0.534 | 0.478 | 0.605 | 0.884 |  | 0.599 | 0.616 | 0.573
13 | PC-3 [JPC-3] | 1.42 | 1.15 | 1.16 | 1.26 | 0.446 | 0.476 | 0.461 | 0.489 | 0.431 | 0.534 | 0.481 | 0.436 | 0.467 | 0.488 | 0.5 | 0.52 | 0.47 | 0.471
14 | NCI-H1651 | 0.192 | 0.18 | 0.18 | 0.159 | 0.377 | 0.384 | 0.305 | 0.374 | 0.343 | 0.351 | 0.302 | 0.298 | 0.357 | 0.985 | 0.86 | 0.865 | 0.753 | 1.11
15 | NCI-H650 | 0.368 | 0.361 | 0.418 | 0.34 | 0.428 | 0.486 | 0.475 | 0.392 | 0.399 | 0.476 | 0.479 | 0.428 | 0.484 | 1.2 | 0.778 | 1.08 | 1.2 | 0.898
